pIC50: −log10 of the molar value. “Also recorded” adds a separate entry of the source. Where a SMILES comes first, the peptide text is derived from it. Bridges are numbered along the chain shown (N, C = ends).
Tests used:
[1] = target: rat α3β2 nAChR (Rattus norvegicus, UniProt P04757+P12390); assay: cell-based
[2] = target: rat α7 nAChR (Rattus norvegicus, UniProt Q05941); assay: cell-based; assay type: cell-based
[3] = in vivo; cited from earlier work

rat α7 nAChR, sequence (Q05941 23-502 limits assumed): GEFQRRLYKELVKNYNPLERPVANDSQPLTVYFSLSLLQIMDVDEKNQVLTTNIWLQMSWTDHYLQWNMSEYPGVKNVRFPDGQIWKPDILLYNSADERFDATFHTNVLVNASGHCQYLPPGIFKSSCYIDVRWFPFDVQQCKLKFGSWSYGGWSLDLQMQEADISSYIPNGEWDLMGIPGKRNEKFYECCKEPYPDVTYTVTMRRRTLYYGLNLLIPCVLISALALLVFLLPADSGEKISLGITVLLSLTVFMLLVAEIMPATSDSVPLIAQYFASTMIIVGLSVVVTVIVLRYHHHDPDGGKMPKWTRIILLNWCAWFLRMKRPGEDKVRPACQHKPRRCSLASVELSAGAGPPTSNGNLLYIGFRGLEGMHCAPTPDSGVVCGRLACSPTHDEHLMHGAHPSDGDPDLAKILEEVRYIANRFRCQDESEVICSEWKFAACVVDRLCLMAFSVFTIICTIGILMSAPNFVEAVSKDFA
rat α3β2 nAChR, sequence (P04757 26-499 limits assumed): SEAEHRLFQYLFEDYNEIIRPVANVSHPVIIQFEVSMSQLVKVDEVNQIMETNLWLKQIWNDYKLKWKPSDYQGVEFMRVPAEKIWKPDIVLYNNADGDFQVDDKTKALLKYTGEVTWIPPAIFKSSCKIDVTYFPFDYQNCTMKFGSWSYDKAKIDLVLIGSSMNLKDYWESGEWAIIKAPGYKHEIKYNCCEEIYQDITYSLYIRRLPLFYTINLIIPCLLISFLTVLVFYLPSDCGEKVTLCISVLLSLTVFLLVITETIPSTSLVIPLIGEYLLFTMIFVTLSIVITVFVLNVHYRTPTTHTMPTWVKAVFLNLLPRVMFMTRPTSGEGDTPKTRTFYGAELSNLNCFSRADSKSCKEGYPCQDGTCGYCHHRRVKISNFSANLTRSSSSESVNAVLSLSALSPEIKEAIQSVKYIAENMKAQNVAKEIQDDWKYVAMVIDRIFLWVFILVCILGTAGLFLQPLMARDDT
rat α3β2 nAChR, sequence (P12390 25-500 limits assumed): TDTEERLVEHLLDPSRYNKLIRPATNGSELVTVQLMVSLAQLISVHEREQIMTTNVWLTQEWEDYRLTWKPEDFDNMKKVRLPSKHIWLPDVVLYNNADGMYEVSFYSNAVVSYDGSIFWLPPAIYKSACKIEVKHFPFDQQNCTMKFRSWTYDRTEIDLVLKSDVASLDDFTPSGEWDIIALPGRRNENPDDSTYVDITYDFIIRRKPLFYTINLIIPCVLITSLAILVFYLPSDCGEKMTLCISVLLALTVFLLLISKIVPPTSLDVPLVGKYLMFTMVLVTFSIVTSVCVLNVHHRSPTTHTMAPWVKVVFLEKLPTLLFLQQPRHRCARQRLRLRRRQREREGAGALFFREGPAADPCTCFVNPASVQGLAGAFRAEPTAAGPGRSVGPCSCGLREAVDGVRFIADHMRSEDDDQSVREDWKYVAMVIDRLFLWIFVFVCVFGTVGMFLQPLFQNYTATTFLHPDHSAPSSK

CC[C@H](C)[C@@H]1NC(=O)[C@@H]2CSSC[C@H](NC(=O)[C@@H](NC(=O)CN)CSSC[C@@H](C(=O)O)NC(=O)[C@H](CC(C)C)NC(=O)[C@H](CC(=O)O)NC(=O)[C@@H]3CCCN3C(=O)[C@H](CC(N)=O)NC(=O)[C@H](CC(N)=O)NC(=O)[C@H](C)NC1=O)C(=O)N[C@@H](CO)C(=O)N[C@@H](CCCNC(=N)N)C(=O)N1CCC[C@H]1C(=O)N1CCC[C@H]1C(=O)N2 [Recombinant TxIA]
nH (Hill coefficient) [1]: −1.54

CC[C@H](C)[C@@H]1NC(=O)[C@@H]2CSSC[C@H](NC(=O)[C@@H](NC(=O)CN)CSSC[C@@H](C(=O)O)NC(=O)[C@H](CC(C)C)NC(=O)[C@H](CC(=O)O)NC(=O)[C@@H]3CCCN3C(=O)[C@H](CC(N)=O)NC(=O)[C@H](CC(N)=O)NC(=O)[C@H](C)NC1=O)C(=O)N[C@@H](CO)C(=O)N[C@@H](CC(=O)O)C(=O)N1CCC[C@H]1C(=O)N1CCC[C@H]1C(=O)N2 [Recombinant [R5D]TxIA] (H-GCCSDPPCIANNPDLC-OH; disulfide 2-16, 3-8)
pIC50 [1]: 5.45
nH (Hill coefficient) [1]: −1.38
pIC50 [2]: 5.54
activity at α7 nAChR (in words) [2]: almost completely reversed; also recorded: could rescue the activity at the α7 nAChR at a similar level to that of globular TxIA
nH (Hill coefficient) [2]: −1.24

CC[C@H](C)[C@@H]1NC(=O)[C@@H]2CSSC[C@H](NC(=O)[C@@H](NC(=O)CN)CSSC[C@@H](C(=O)O)NC(=O)[C@H](CC(C)C)NC(=O)[C@H](CC(=O)O)NC(=O)[C@@H]3CCCN3C(=O)[C@H](CC(N)=O)NC(=O)[C@H](CC(N)=O)NC(=O)[C@H](C)NC1=O)C(=O)N[C@@H](CO)C(=O)N[C@@H](CC(N)=O)C(=O)N1CCC[C@H]1C(=O)N1CCC[C@H]1C(=O)N2 [Recombinant [R5N]TxIA] (H-GCCSNPPCIANNPDLC-OH; disulfide 2-16, 3-8)
pIC50 [1]: 5.74
nH (Hill coefficient) [1]: −1.36
activity at α7 nAChR (in words) [2]: but not when an asparagine residue was introduced in this position

CC[C@H](C)[C@@H]1NC(=O)[C@@H]2CSSC[C@H](NC(=O)CN)C(=O)N[C@@H](CSSC[C@@H](C(N)=O)NC(=O)[C@H](CC(C)C)NC(=O)[C@H](CC(=O)O)NC(=O)[C@@H]3CCCN3C(=O)[C@H](CC(N)=O)NC(=O)[C@H](CC(N)=O)NC(=O)[C@H](C)NC1=O)C(=O)N[C@@H](CO)C(=O)N[C@@H](CCCNC(=N)N)C(=O)N1CCC[C@H]1C(=O)N1CCC[C@H]1C(=O)N2 [Synthetic TxIA, reference compound]
pIC50 [1]: 8.34
pIC50 [2]: 5.74

Vc1.1
analgesic properties [3]: potent analgesic properties
